# Measurements reported in ChEMBL document CHEMBL4229446, “Development of Novel Monoamine Oxidase-B (MAO-B) Inhibitors with Reduced Blood-Brain Barrier Permeability for the Potential Management of Noncentral Nervous System (CNS) Diseases” (J Med Chem, 2018).
# What was measured:
# [1] = target: T1, Amine oxidase [flavin-containing] A (Homo sapiens, UniProt P21397); assay: Inhibition of human recombinant MAO-A expressed in baculovirus infected BTI-TN-5B1-4 insect cells using tyramine as substrate preincubated for 1 hr followed by substrate addition and measured after 30 mins by resazurin dye-based fluorescence assay
# T1 sequence (P21397 whole entry): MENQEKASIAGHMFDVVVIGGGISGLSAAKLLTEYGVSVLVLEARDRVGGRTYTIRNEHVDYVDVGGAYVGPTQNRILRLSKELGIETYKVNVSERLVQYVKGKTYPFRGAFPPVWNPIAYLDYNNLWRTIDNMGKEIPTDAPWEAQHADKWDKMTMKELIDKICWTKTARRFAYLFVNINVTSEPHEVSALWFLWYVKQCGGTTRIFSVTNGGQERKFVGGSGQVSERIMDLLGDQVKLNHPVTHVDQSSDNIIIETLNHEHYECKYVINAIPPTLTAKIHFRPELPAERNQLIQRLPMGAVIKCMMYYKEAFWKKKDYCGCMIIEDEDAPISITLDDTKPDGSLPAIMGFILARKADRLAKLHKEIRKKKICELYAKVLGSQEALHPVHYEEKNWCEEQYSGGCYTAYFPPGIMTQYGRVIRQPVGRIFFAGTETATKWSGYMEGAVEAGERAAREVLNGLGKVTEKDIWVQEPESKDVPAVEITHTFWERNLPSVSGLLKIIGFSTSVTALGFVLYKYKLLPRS
# [2] = target: T2, Amine oxidase [flavin-containing] B (Homo sapiens, UniProt P27338); assay: Inhibition of human recombinant MAO-B expressed in baculovirus infected BTI-TN-5B1-4 insect cells using benzylamine as substrate preincubated for 1 hr followed by substrate addition and measured after 30 mins by resazurin dye-based fluorescence assay; type: cell-based
# T2 sequence (P27338 whole entry): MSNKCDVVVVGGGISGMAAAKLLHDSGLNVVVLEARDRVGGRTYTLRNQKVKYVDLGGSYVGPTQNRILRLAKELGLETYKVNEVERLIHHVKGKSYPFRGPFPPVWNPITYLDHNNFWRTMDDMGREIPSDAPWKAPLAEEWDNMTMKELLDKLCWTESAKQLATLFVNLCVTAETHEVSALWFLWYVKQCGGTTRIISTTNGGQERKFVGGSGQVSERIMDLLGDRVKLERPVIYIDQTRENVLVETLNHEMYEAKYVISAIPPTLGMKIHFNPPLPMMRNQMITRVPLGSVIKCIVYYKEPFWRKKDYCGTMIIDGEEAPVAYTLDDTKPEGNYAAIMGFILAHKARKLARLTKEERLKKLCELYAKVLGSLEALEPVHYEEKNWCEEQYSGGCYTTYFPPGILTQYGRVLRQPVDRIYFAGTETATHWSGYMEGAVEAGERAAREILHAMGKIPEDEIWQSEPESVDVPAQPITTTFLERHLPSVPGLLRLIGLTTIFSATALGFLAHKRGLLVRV
SMILES,IC50 [1] [µM],IC50 [2] [µM]
C[C@H](Cc1ccc(OCc2cccnc2)cc1)N(C)CC(=O)O,> 50,> 50
C[C@H](Cc1ccc(OCc2cccc([N+](=O)[O-])c2)cc1)N(C)CC(=O)O,> 50,4.37
C[C@H](Cc1ccc(OCc2ccc(Cl)cc2)cc1)N(C)CC(=O)O,217,0.864
C[C@H](Cc1ccc(OCc2ccccc2Cl)cc1)N(C)CC(=O)O,> 50,0.713
CN(CC(=O)O)[C@H](CC#N)Cc1ccc(OCc2ccccc2)cc1,> 50,0.532
COC(=O)[C@H](Cc1ccc(OCc2ccccc2)cc1)N(C)CC(=O)O,> 50,7.93
C[C@H](Cc1ccc(OCc2ccccc2)cc1)N(C)CC(=O)O,> 50,0.894
COc1cccc(COc2ccc(C[C@@H](C)N(C)CC(=O)O)cc2)c1,,2.11
C[C@H](Cc1ccc(OCc2ccncc2)cc1)N(C)CC(=O)O,> 50,22
C[C@H](Cc1ccc(OCc2cccc(C#N)c2)cc1)N(C)CC(=O)O,> 50,21.3
C[C@H](Cc1ccc(OCc2cc(Cl)ccc2Cl)cc1)N(C)CC(=O)O,> 50,1.38
CN(CC(=O)O)[C@H](CO)Cc1ccc(OCc2ccccc2)cc1,> 50,1.01
C[C@H](Cc1ccc(OCc2cccc(F)c2)cc1)N(C)CC(=O)O,> 50,0.869
